Values quoted from earlier work as cited in patent publication US11413253B2, “Nanoparticle delivery systems” (Celator Pharmaceuticals, Inc., priority 2015, dated 2022).

Conditions: shown in the art

| plasma clearance of free drug | Structure (SMILES) |
| --- | --- |
| cleared quite rapidly | CCNC(=O)c1noc(-c2cc(C(C)C)c(O)cc2O)c1-c1ccc(CN2CCOCC2)cc1 [free AUY922, AUY922] |
| cleared quite rapidly | CC(=O)O[C@@]12CO[C@@H]1C[C@H](O)[C@@]1(C)C(=O)[C@H](O)C3=C(C)[C@@H](OC(=O)[C@H](O)[C@@H](NC(=O)OC(C)(C)C)c4ccccc4)C[C@@](O)([C@@H](OC(=O)c4ccccc4)[C@H]21)C3(C)C [free docetaxel, docetaxel] |
